Data from ChEMBL document CHEMBL4020788, “Synthesis, SAR and molecular docking studies of benzo[d]thiazole-hydrazones as potential antibacterial and antifungal agents” (2017).
Calls of active or inactive are those of the source. No cut-off for these calls is given here.

What was measured:
Format in all cases: functional
[1] = tested on: Staphylococcus aureus; assay: Antibacterial activity against Staphylococcus aureus at 25 ug/ml after 24 hrs by agar well diffusion method
[2] = tested on: Staphylococcus aureus; assay: Antibacterial activity against Staphylococcus aureus at 50 ug/ml after 24 hrs by agar well diffusion method
[3] = tested on: Staphylococcus aureus; assay: Antibacterial activity against Staphylococcus aureus at 75 ug/ml after 24 hrs by agar well diffusion method
[4] = tested on: Staphylococcus aureus; assay: Antibacterial activity against Staphylococcus aureus at 100 ug/ml after 24 hrs by agar well diffusion method
[5] = tested on: Bacillus subtilis; assay: Antibacterial activity against Bacillus subtilis at 25 ug/ml after 24 hrs by agar well diffusion method
[6] = tested on: Bacillus subtilis; assay: Antibacterial activity against Bacillus subtilis at 50 ug/ml after 24 hrs by agar well diffusion method
[7] = tested on: Bacillus subtilis; assay: Antibacterial activity against Bacillus subtilis at 75 ug/ml after 24 hrs by agar well diffusion method
[8] = tested on: Bacillus subtilis; assay: Antibacterial activity against Bacillus subtilis at 100 ug/ml after 24 hrs by agar well diffusion method
[9] = tested on: Escherichia coli; assay: Antibacterial activity against Escherichia coli at 25 ug/ml after 24 hrs by agar well diffusion method
[10] = tested on: Escherichia coli; assay: Antibacterial activity against Escherichia coli at 50 ug/ml after 24 hrs by agar well diffusion method
[11] = tested on: Escherichia coli; assay: Antibacterial activity against Escherichia coli at 75 ug/ml after 24 hrs by agar well diffusion method
[12] = tested on: Escherichia coli; assay: Antibacterial activity against Escherichia coli at 100 ug/ml after 24 hrs by agar well diffusion method
[13] = tested on: Klebsiella pneumoniae; assay: Antibacterial activity against Klebsiella pneumoniae at 25 ug/ml after 24 hrs by agar well diffusion method; conditions: read-out: DIZ
[14] = tested on: Klebsiella pneumoniae; assay: Antibacterial activity against Klebsiella pneumoniae at 50 ug/ml after 24 hrs by agar well diffusion method; conditions: read-out: DIZ
[15] = tested on: Klebsiella pneumoniae; assay: Antibacterial activity against Klebsiella pneumoniae at 75 ug/ml after 24 hrs by agar well diffusion method; conditions: read-out: DIZ
[16] = tested on: Klebsiella pneumoniae; assay: Antibacterial activity against Klebsiella pneumoniae at 100 ug/ml after 24 hrs by agar well diffusion method; conditions: read-out: DIZ
[17] = tested on: Staphylococcus aureus; assay: Antibacterial activity against methicillin resistant Staphylococcus aureus MRSA090 at 25 ug/ml after 24 hrs by agar well diffusion method
[18] = tested on: Staphylococcus aureus; assay: Antibacterial activity against methicillin resistant Staphylococcus aureus MRSA090 at 50 ug/ml after 24 hrs by agar well diffusion method
[19] = tested on: Staphylococcus aureus; assay: Antibacterial activity against methicillin resistant Staphylococcus aureus MRSA090 at 75 ug/ml after 24 hrs by agar well diffusion method
[20] = tested on: Staphylococcus aureus; assay: Antibacterial activity against methicillin resistant Staphylococcus aureus MRSA090 at 100 ug/ml after 24 hrs by agar well diffusion method
[21] = tested on: Aspergillus niger; assay: Antifungal activity against Aspergillus niger at 25 ug/ml after 48 hrs by agar well diffusion method
[22] = tested on: Aspergillus niger; assay: Antifungal activity against Aspergillus niger at 50 ug/ml after 48 hrs by agar well diffusion method
[23] = tested on: Aspergillus niger; assay: Antifungal activity against Aspergillus niger at 75 ug/ml after 48 hrs by agar well diffusion method
[24] = tested on: Aspergillus niger; assay: Antifungal activity against Aspergillus niger at 100 ug/ml after 48 hrs by agar well diffusion method
[25] = tested on: Fusarium verticillioides; assay: Antifungal activity against Fusarium moniliforme at 25 ug/ml after 48 hrs by agar well diffusion method
[26] = tested on: Fusarium verticillioides; assay: Antifungal activity against Fusarium moniliforme at 50 ug/ml after 48 hrs by agar well diffusion method
[27] = tested on: Fusarium verticillioides; assay: Antifungal activity against Fusarium moniliforme at 75 ug/ml after 48 hrs by agar well diffusion method
[28] = tested on: Fusarium verticillioides; assay: Antifungal activity against Fusarium moniliforme at 100 ug/ml after 48 hrs by agar well diffusion method
[29] = tested on: Fusarium oxysporum; assay: Antifungal activity against Fusarium oxysporum at 25 ug/ml after 48 hrs by agar well diffusion method
[30] = tested on: Fusarium oxysporum; assay: Antifungal activity against Fusarium oxysporum at 50 ug/ml after 48 hrs by agar well diffusion method
[31] = tested on: Fusarium oxysporum; assay: Antifungal activity against Fusarium oxysporum at 75 ug/ml after 48 hrs by agar well diffusion method
[32] = tested on: Fusarium oxysporum; assay: Antifungal activity against Fusarium oxysporum at 100 ug/ml after 48 hrs by agar well diffusion method

Row | Compound | diameter of the inhibition zone (DIZ) [1] | diameter of the inhibition zone (DIZ) [2] | diameter of the inhibition zone (DIZ) [3] | diameter of the inhibition zone (DIZ) [4] | diameter of the inhibition zone (DIZ) [5] | diameter of the inhibition zone (DIZ) [6] | diameter of the inhibition zone (DIZ) [7] | diameter of the inhibition zone (DIZ) [8] | zone of inhibition at 25 µg/mL [13] | zone of inhibition at 50 µg/mL [14] | zone of inhibition at 75 µg/mL [15] | zone of inhibition at 100 µg/mL [16] | diameter of the inhibition zone (DIZ) [25] | diameter of the inhibition zone (DIZ) [26] | diameter of the inhibition zone (DIZ) [29] | diameter of the inhibition zone (DIZ) [30] | other results
1 | Cc1cccc2nc(N/N=C/c3ccc(Oc4ccccc4)cc3)sc12 | inactive | inactive | inactive | inactive | inactive | inactive | inactive | inactive | 4 mm | 18 mm | 11 mm | 15 mm | inactive | inactive | inactive | inactive | diameter of the inhibition zone (DIZ) [9]: inactive; diameter of the inhibition zone (DIZ) [10]: inactive; diameter of the inhibition zone (DIZ) [11]: inactive; diameter of the inhibition zone (DIZ) [12]: inactive; diameter of the inhibition zone (DIZ) [17]: inactive; diameter of the inhibition zone (DIZ) [18]: inactive; diameter of the inhibition zone (DIZ) [19]: inactive; diameter of the inhibition zone (DIZ) [20]: inactive; diameter of the inhibition zone (DIZ) [21]: inactive; diameter of the inhibition zone (DIZ) [22]: inactive; diameter of the inhibition zone (DIZ) [23]: inactive; diameter of the inhibition zone (DIZ) [24]: inactive; zone of inhibition at 75 µg/mL ([27]; read-out: DIZ): 8 mm; zone of inhibition at 100 µg/mL ([28]; read-out: DIZ): 14 mm; zone of inhibition at 75 µg/mL ([31]; read-out: DIZ): 10 mm; zone of inhibition at 100 µg/mL ([32]; read-out: DIZ): 15 mm
2 | Cc1cccc2nc(N/N=C/c3ccncc3)sc12 | inactive | inactive | inactive | inactive | inactive | inactive | inactive | inactive | 5 mm | 9 mm | 14 mm | 18 mm | inactive | inactive | inactive | inactive | zone of inhibition at 25 µg/mL ([9]; read-out: DIZ): 7 mm; zone of inhibition at 50 µg/mL ([10]; read-out: DIZ): 14 mm; zone of inhibition at 75 µg/mL ([11]; read-out: DIZ): 16 mm; zone of inhibition at 100 µg/mL ([12]; read-out: DIZ): 19 mm; zone of inhibition at 25 µg/mL ([17]; MRSA090, 24 h, read-out: DIZ): 7 mm; zone of inhibition at 50 µg/mL ([18]; MRSA090, 24 h, read-out: DIZ): 10 mm; zone of inhibition at 75 µg/mL ([19]; MRSA090, 24 h, read-out: DIZ): 14 mm; zone of inhibition at 100 µg/mL ([20]; MRSA090, 24 h, read-out: DIZ): 17 mm; zone of inhibition at 25 µg/mL ([21]; read-out: DIZ): 6 mm; zone of inhibition at 50 µg/mL ([22]; read-out: DIZ): 11 mm; zone of inhibition at 75 µg/mL ([23]; read-out: DIZ): 13 mm; zone of inhibition at 100 µg/mL ([24]; read-out: DIZ): 16 mm; diameter of the inhibition zone (DIZ) [27]: inactive; diameter of the inhibition zone (DIZ) [28]: inactive; diameter of the inhibition zone (DIZ) [31]: inactive; diameter of the inhibition zone (DIZ) [32]: inactive
